{"source": "patent US20190144909A1", "about": "“METHODS OF MODULATING BCKDH” (NESTEC S.A., priority 2016, published 2019)", "origin": "cited, not measured here", "key": {"[1]": {"test_system": "branched-chain alpha-keto acid dehydrogenase E1 A subunit (BCKDHA)"}, "[2]": {"test_system": "branched-chain alpha-keto acid dehydrogenase kinase (BCKDH kinase)"}, "[3]": {"test_system": "branched-chain alpha-keto acid dehydrogenase E1 B subunit (BCKDHB)"}, "[4]": {"test_system": "BCKDH kinase", "details": "Shimomura et al. (2006) J. Nutr. 136: 250S-253S"}, "[5]": {"details": "BCKDH kinase, Table 2, from Comparative Toxicogenomics Database"}, "[6]": {"details": "BCKDHA, Table 1b, from Comparative Toxicogenomics Database"}, "[7]": {"details": "BCKDHB, Table 1a, from Comparative Toxicogenomics Database"}}, "note": "“Also recorded” adds a separate entry of the source. Like-named read-outs stand apart in the source and are kept apart here.", "data": [{"compound": "c1cc2ccc3ccc4ccc5cccc6c(c1)c2c3c4c56", "note": "[1,12-benzoperylene]", "values": [{"measurement": "Interaction Actions", "setting": "[1]", "value": "increases expression"}]}, {"compound": "OCl", "note": "[Hypochlorous Acid]", "values": [{"measurement": "Interaction Actions", "setting": "[2]; [5]", "value": "decreases expression"}]}, {"compound": "C=CC1(C)OC(=O)N(c2cc(Cl)cc(Cl)c2)C1=O", "note": "(stereo not shown) [Vinclozolin]", "values": [{"measurement": "Interaction Actions", "setting": "[1]; [6]", "value": "increases expression"}]}, {"compound": "[Cu]", "note": "[Copper]", "values": [{"measurement": "Interaction Actions", "setting": "[2]", "value": "affects binding/; also recorded: decreases expression"}]}, {"compound": "[Cl-].[Cl-].[Co+2]", "note": "[Cobaltous chloride]", "values": [{"measurement": "Interaction Actions", "setting": "[2]", "value": "decreases expression"}]}, {"compound": "Cl.N", "note": "[Ammonium Chloride]", "values": [{"measurement": "Interaction Actions", "setting": "[3]", "value": "affects expression"}, {"measurement": "Interaction Actions", "setting": "[2]", "value": "affects expression"}, {"measurement": "Interaction Actions", "setting": "[1]", "value": "affects expression"}]}, {"compound": "C#CC1(O)CC[C@H]2[C@@H]3C(O)C=C4CC(O)CC[C@]4(C)[C@H]3CC[C@@]21C", "note": "(stereo partly shown) [17-ethynyl-5-androstene-3,7,17-triol]", "values": [{"measurement": "Interaction Actions", "setting": "[1]; [6]", "value": "affects binding"}]}, {"compound": "Clc1cc2c(cc1Cl)Oc1cc(Cl)c(Cl)cc1O2", "values": [{"measurement": "Interaction Actions", "setting": "[3]", "value": "affects expression"}, {"measurement": "Interaction Actions", "setting": "[2]", "value": "affects reaction/; also recorded: decreases expression; also recorded: affects expression"}, {"measurement": "Interaction Actions", "setting": "[1]", "value": "affects expression; also recorded: affects cotreatment/; also recorded: increases expression"}]}, {"compound": "C=CC(=C)Cl", "note": "[Chloroprene]", "values": [{"measurement": "Interaction Actions", "setting": "[1]", "value": "increases expression"}]}, {"compound": "CC[C@@]1(O)C(=O)OCc2c1cc1n(c2=O)Cc2cc3c(CN(C)C)c(O)ccc3nc2-1", "note": "[Topotecan, reference compound]", "values": [{"measurement": "Interaction Actions", "setting": "[1]; [6]", "value": "affects response"}]}, {"compound": "[Na+].[Na+].[O]=[Cr](=[O])([O-])[O][Cr](=[O])(=[O])[O-]", "note": "[Sodium bichromate]", "values": [{"measurement": "Interaction Actions", "setting": "[2]", "value": "decreases expression"}]}, {"compound": "CCCCOC(=O)c1ccccc1C(=O)OCCCC", "note": "[Dibutyl Phthalate]", "values": [{"measurement": "Interaction Actions", "setting": "[2]; [5]", "value": "decreases expression"}]}, {"compound": "COCC(=O)O", "note": "[Methoxyacetic acid]", "values": [{"measurement": "Interaction Actions", "setting": "[2]; [5]", "value": "affects expression"}]}, {"compound": "Tunicamycin [reference compound]", "values": [{"measurement": "Interaction Actions", "setting": "[2]", "value": "decreases expression"}, {"measurement": "Interaction Actions", "setting": "[1]", "value": "increases expression"}]}, {"compound": "OO", "note": "[Hydrogen Peroxide]", "values": [{"measurement": "Interaction Actions", "setting": "[2]; [5]", "value": "affects expression"}]}, {"compound": "Cc1cccc(Nc2cc(Cl)nc(SCC(=O)O)n2)c1C", "note": "[pirinixic acid, reference compound]", "values": [{"measurement": "Interaction Actions", "setting": "[3]; [7]", "value": "increases expression"}, {"measurement": "Interaction Actions", "setting": "[1]; [6]", "value": "increases expression"}]}, {"compound": "c1ccoc1", "note": "[Furan]", "values": [{"measurement": "Interaction Actions", "setting": "[1]", "value": "affects binding"}]}, {"compound": "CC(=O)Nc1ccc(O)cc1", "note": "[Acetaminophen, reference compound]", "values": [{"measurement": "Interaction Actions", "setting": "[2]; [5]", "value": "affects expression"}, {"measurement": "Interaction Actions", "setting": "[1]; [6]", "value": "affects expression; also recorded: increases expression"}]}, {"compound": "CC12CC1(C)C(=O)N(c1cc(Cl)cc(Cl)c1)C2=O", "note": "(stereo not shown) [Procymidone]", "values": [{"measurement": "Interaction Actions", "setting": "[2]; [5]", "value": "decreases expression"}]}, {"compound": "CC(C)(c1ccc(O)cc1)c1ccc(O)cc1", "note": "[Bisphenol A]", "values": [{"measurement": "Interaction Actions", "setting": "[2]; [5]", "value": "affects expression"}, {"measurement": "Interaction Actions", "setting": "[1]; [6]", "value": "increases expression"}]}, {"compound": "CC(C)CC(Cl)C(=O)O", "note": "(stereo not drawn) [α-chloroisocaproic acid]", "values": [{"measurement": "inhibitor of BCKDH kinase", "setting": "[4]", "value": "most potent known inhibitor of BCKDH kinase"}]}, {"compound": "O=c1[nH]cc(F)c(=O)[nH]1", "note": "[Fluorouracil, reference compound]", "values": [{"measurement": "Interaction Actions", "setting": "[1]; [6]", "value": "affects expression"}]}, {"compound": "O=C(NN=C1CCCCC1)C(=O)NN=C1CCCCC1", "note": "[Cuprizone, reference compound]", "values": [{"measurement": "Interaction Actions", "setting": "[3]", "value": "increases expression"}]}, {"compound": "CNC1(c2ccccc2Cl)CCCCC1=O", "note": "(stereo not shown) [Ketamine, reference compound]", "values": [{"measurement": "Interaction Actions", "setting": "[1]", "value": "increases expression"}]}, {"compound": "NC(=O)N1c2ccccc2C=Cc2ccccc21", "note": "[Carbamazepine, reference compound]", "values": [{"measurement": "Interaction Actions", "setting": "[1]; [6]", "value": "affects expression"}]}, {"compound": "CCN(CC)N=O", "note": "[Diethylnitrosamine]", "values": [{"measurement": "Interaction Actions", "setting": "[3]", "value": "increases expression"}, {"measurement": "Interaction Actions", "setting": "[2]", "value": "affects cotreatment/; also recorded: affects expression"}]}, {"compound": "CC(C)(Oc1ccc(Cl)cc1)C(=O)O", "note": "[Clofibric Acid]", "values": [{"measurement": "Interaction Actions", "setting": "[2]; [5]", "value": "affects cotreatment/; also recorded: affects expression"}]}, {"compound": "OC[C@H]1O[C@@H](Oc2ccc(O)cc2)[C@H](O)[C@@H](O)[C@@H]1O", "note": "[Arbutin]", "values": [{"measurement": "Interaction Actions", "setting": "[2]; [5]", "value": "decreases expression"}]}, {"compound": "C/C=C(/C)C(=O)O[C@H]1C(C)=C2[C@H]([C@@H]1OC(=O)CCCCCCC)[C@@](C)(OC(C)=O)C[C@H](OC(=O)CCC)[C@@]1(O)[C@H]2OC(=O)[C@@]1(C)O", "note": "[Thapsigargin, reference compound]", "values": [{"measurement": "Interaction Actions", "setting": "[2]; [5]", "value": "decreases expression"}]}, {"compound": "CC(C)CC(=O)C(=O)O", "note": "[α-ketoisocaproic acid]", "values": [{"measurement": "inhibitor of BCKDH kinase", "setting": "[4]", "value": "known physiological inhibitor of BCKDH kinase"}]}, {"compound": "potassium chromate(VI)", "values": [{"measurement": "Interaction Actions", "setting": "[3]", "value": "increases expression"}]}, {"compound": "CCCC(CCC)C(=O)O", "note": "[Valproic Acid, reference compound]", "values": [{"measurement": "Interaction Actions", "setting": "[3]; [7]", "value": "affects expression; also recorded: increases expression"}, {"measurement": "Interaction Actions", "setting": "[2]; [5]", "value": "affects expression"}, {"measurement": "Interaction Actions", "setting": "[1]; [6]", "value": "affects expression"}]}, {"compound": "C[C@@H]1Cc2c(Cl)cc(C(=O)N[C@@H](Cc3ccccc3)C(=O)O)c(O)c2C(=O)O1", "note": "[Ochratoxin A]", "values": [{"measurement": "Interaction Actions", "setting": "[2]", "value": "decreases expression"}]}, {"compound": "[CH3][Hg][Cl]", "note": "[Methylmercuric chloride]", "values": [{"measurement": "Interaction Actions", "setting": "[3]", "value": "increases expression"}, {"measurement": "Interaction Actions", "setting": "[1]", "value": "increases expression"}]}, {"compound": "ClC(Cl)(Cl)Cl", "note": "[Carbon Tetrachloride]", "values": [{"measurement": "Interaction Actions", "setting": "[1]", "value": "increases expression"}]}, {"compound": "CCNc1nc(Cl)nc(NC(C)C)n1", "note": "[Atrazine]", "values": [{"measurement": "Interaction Actions", "setting": "[2]; [5]", "value": "decreases expression"}, {"measurement": "Interaction Actions", "setting": "[1]; [6]", "value": "increases expression"}]}, {"compound": "CN[C@H](CC(C)C)C(=O)N[C@H]1C(=O)N[C@@H](CC(N)=O)C(=O)N[C@H]2C(=O)N[C@H]3C(=O)N[C@H](C(=O)N[C@H](C(=O)O)c4cc(O)cc(O)c4-c4cc3ccc4O)[C@H](O)c3ccc(c(Cl)c3)Oc3cc2cc(c3O[C@@H]2O[C@H](CO)[C@@H](O)[C@H](O)[C@H]2O[C@H]2C[C@](C)(N)[C@H](O)[C@H](C)O2)Oc2ccc(cc2Cl)[C@H]1O", "note": "[Vancomycin, reference compound]", "values": [{"measurement": "Interaction Actions", "setting": "[3]", "value": "increases expression"}, {"measurement": "Interaction Actions", "setting": "[1]", "value": "increases expression"}]}, {"compound": "c1ccc2c(c1)cc1ccc3cccc4ccc2c1c34", "note": "[Benzo(a)pyrene]", "values": [{"measurement": "Interaction Actions", "setting": "[3]; [7]", "value": "affects expression/; also recorded: affects reaction; also recorded: increases expression"}]}]}
